Source: ChEMBL document CHEMBL6078711, “Design, synthesis, and biological evaluation of steroidal indole derivatives as membrane-targeting antibacterial candidates” (Eur J Med Chem, 2025)
Values after ≈ are worked out from the molar mass of the structure shown. Active and inactive are the calls of the source. The calls are words filed in the database; no cut-off is given here.

Tests used:
Staphylococcus aureus [1] = assay: Antibacterial activity against Staphylococcus aureus CGMCC1.8721 assessed as reduction in bacterial growth in presence of Mg2+; type: functional
Staphylococcus aureus [2] = assay: Antibacterial activity against methicillin-resistant Staphylococcus aureus CGMCC 1.12409 assessed as reduction in bacterial growth in presence of Fe2+; type: functional
Staphylococcus aureus [3] = assay: Antibacterial activity against methicillin-resistant Staphylococcus aureus CGMCC 1.12409 assessed as reduction in bacterial growth in presence of Fe3+; type: functional
Staphylococcus aureus [4] = assay: Antibacterial activity against methicillin-resistant Staphylococcus aureus ATCC 33591 assessed as reduction in bacterial growth in presence of Fe3+; type: functional
Staphylococcus aureus [5] = assay: Antibacterial activity against methicillin-resistant Staphylococcus aureus CGMCC 1.12409 assessed as reduction in bacterial growth in presence of Na+; type: functional
Cell membrane [6] = assay: Induction of membrane depolarization in Staphylococcus aureus CGMCC1.8721 assessed as increase in fluorescence intensity measured upto 30 mins by DiSC35 dye-based fluorescence assay; type: subcellular; settings: dose 2-8 µg/ml
Staphylococcus aureus [7] = assay: Antibacterial activity against Staphylococcus aureus CGMCC1.8721 assessed as reduction in bacterial growth in presence of lipoteichoic acid; type: functional, organism-based
HEK-293T = assay: Cytotoxicity against HEK293T cells upto 20 uM; type: toxicity, cell-based; settings: human
Cell membrane [8] = assay: Disruption of cell membrane integrity in Staphylococcus aureus CGMCC1.8721 assessed as increase in protein leakage at 4 times MIC; type: subcellular
Staphylococcus aureus [9] = assay: Antibiofilm activity against Staphylococcus aureus CGMCC1.8721 assessed as inhibition of biofilm formation at 1 times MIC; type: functional
Staphylococcus aureus [10] = assay: Antibacterial activity against Staphylococcus aureus CGMCC1.8721 assessed as reduction in bacterial growth at 4 to 8 times MIC measured at 0.5 hrs by time kill assay; type: functional; set-up: scale not given: the % may be the effect or the level left
Cell membrane [11] = assay: Disruption of cell membrane integrity in Staphylococcus aureus CGMCC1.8721 assessed as increase in red fluorescence at 4 times MIC by SYTO 9/PI staining based confocal microscopic analysis; type: subcellular
Staphylococcus aureus [12] = assay: Antibacterial activity against methicillin-resistant Staphylococcus aureus ATCC 43300 assessed as reduction in bacterial growth in presence of Zn2+; type: functional
Staphylococcus aureus [13] = assay: Antibacterial activity against Staphylococcus aureus CGMCC1.8721 assessed as reduction in bacterial growth in presence of phosphatidylcholine; type: functional, organism-based
Staphylococcus aureus [14] = assay: Antibacterial activity against methicillin-resistant Staphylococcus aureus ATCC 43300 assessed as reduction in bacterial growth in presence of Ca2+; type: functional
Staphylococcus aureus [15] = assay: Antibacterial activity against methicillin-resistant Staphylococcus aureus ATCC 43300 assessed as reduction in bacterial growth; type: functional
Staphylococcus aureus [16] = assay: Antibacterial activity against Staphylococcus aureus CGMCC1.8721 assessed as reduction in bacterial growth in presence of Zn2+; type: functional
Staphylococcus aureus [17] = assay: Antibacterial activity against methicillin-resistant Staphylococcus aureus ATCC 43300 assessed as reduction in bacterial growth in presence of Fe2+; type: functional
Staphylococcus aureus [18] = assay: Antibacterial activity against methicillin-resistant Staphylococcus aureus CGMCC 1.12409 assessed as reduction in bacterial growth in presence of Zn2+; type: functional
Staphylococcus aureus [19] = assay: Antibacterial activity against methicillin-resistant Staphylococcus aureus ATCC 43300 assessed as reduction in bacterial growth in presence of K+; type: functional
Staphylococcus aureus [20] = assay: Antibacterial activity against methicillin-resistant Staphylococcus aureus CGMCC 1.12409 assessed as reduction in bacterial growth in presence of Mg2+; type: functional
Staphylococcus aureus [21] = assay: Antibacterial activity against methicillin-resistant Staphylococcus aureus ATCC 33591 assessed as reduction in bacterial growth in presence of Ca2+; type: functional
Staphylococcus aureus [22] = assay: Antibacterial activity against methicillin-resistant Staphylococcus aureus ATCC 33591 assessed as reduction in bacterial growth in presence of K+; type: functional
Staphylococcus aureus [23] = assay: Antibacterial activity against methicillin-resistant Staphylococcus aureus ATCC 33591 assessed as reduction in bacterial growth; type: functional
Staphylococcus aureus [24] = assay: Antibacterial activity against methicillin-resistant Staphylococcus aureus ATCC 33591 assessed as reduction in bacterial growth in presence of Fe2+; type: functional
Staphylococcus aureus [25] = assay: Antibacterial activity against Staphylococcus aureus CGMCC1.8721 assessed as reduction in bacterial growth in presence of K+; type: functional
HepG2 [26] = assay: Cytotoxicity against human HepG2 cells assessed as cell viability upto 40 uM relative to control; type: functional; settings: up to 40 µM
A549 = assay: Cytotoxicity against human A549 cells upto 20 uM; type: functional, cell-based
[27] = Hemolytic activity against rabbit Red blood cell assessed as hemolysis; type: toxicity, cell-based, Oryctolagus cuniculus, Erythrocyte; settings: red blood cells
Staphylococcus aureus [28] = assay: Antibacterial activity against methicillin-resistant Staphylococcus aureus ATCC 33591 assessed as reduction in bacterial growth in presence of Mg2+; type: functional
HepG2 [29] = assay: Cytotoxicity against human HepG2 cells upto 20 uM; type: functional, cell-based
Staphylococcus aureus [30] = assay: Antibacterial activity against Staphylococcus aureus CGMCC1.8721 assessed as reduction in metabolic activity at 1 to 4 times MIC by Alamar Blue assay; type: functional, organism-based
Staphylococcus aureus [31] = assay: Antibacterial activity against methicillin-resistant Staphylococcus aureus ATCC 43300 assessed as reduction in bacterial growth in presence of Na+; type: functional
Staphylococcus aureus [32] = assay: Antibiofilm activity against Staphylococcus aureus CGMCC1.8721 assessed as biofilm eradication; type: functional, organism-based
Staphylococcus aureus [33] = assay: Antibacterial activity against Staphylococcus aureus CGMCC1.8721 assessed as reduction in bacterial growth in presence of Fe3+; type: functional
[34] = Cytotoxicity against human HEK293T cells assessed as cell viability upto 40 uM relative to control; type: toxicity, cell-based, HEK-293T; settings: read-out: Activity
Staphylococcus aureus [35] = assay: Bactericidal activity against methicillin-resistant Staphylococcus aureus ATCC 43300 assessed as reduction in bacterial growth; type: functional
Staphylococcus aureus [36] = assay: Antibacterial activity against methicillin-resistant Staphylococcus aureus CGMCC 1.12409 assessed as reduction in bacterial growth; type: functional
Staphylococcus aureus [37] = assay: Antibacterial activity against methicillin-resistant Staphylococcus aureus ATCC 33591 assessed as reduction in bacterial growth in presence of Zn2+; type: functional
Staphylococcus aureus [38] = assay: Antibacterial activity against methicillin-resistant Staphylococcus aureus ATCC 43300 assessed as reduction in bacterial growth in presence of Mg2+; type: functional
Staphylococcus aureus [39] = assay: Antibacterial activity against Staphylococcus aureus CGMCC1.8721 assessed as reduction in bacterial growth in presence of phosphatidylethanolamine; type: functional, organism-based
Cell membrane [40] = assay: Disruption of cell membrane integrity in Staphylococcus aureus CGMCC1.8721 assessed as appearance of ruptured cell surface at 1 to 4 times MIC by scanning electron microscopic analysis; type: subcellular
Staphylococcus aureus [41] = assay: Drug resistance, ratio of MIC for Staphylococcus aureus CGMCC1.8721 after 30 days exposure to MIC for Staphylococcus aureus CGMCC1.8721 during first exposure; type: functional
Staphylococcus aureus [42] = assay: Bactericidal activity against methicillin-resistant Staphylococcus aureus CGMCC 1.12409 assessed as reduction in bacterial growth; type: functional
Cell membrane [43] = assay: Induction of inner membrane permeabilization in Staphylococcus aureus CGMCC1.8721 assessed as increase in fluorescence intensity by PI staining based fluorescence analysis; type: subcellular
Staphylococcus aureus [44] = assay: Antibacterial activity against methicillin-resistant Staphylococcus aureus CGMCC 1.12409 assessed as reduction in bacterial growth in presence of Ca2+; type: functional

CCNCc1ccc2[nH]cc(C[C@@H](C)[C@H]3CC[C@H]4[C@@H]5CC[C@@H]6C[C@H](O)CC[C@]6(C)[C@H]5CC[C@]34C)c2c1
MIC (Staphylococcus aureus [1]): 1 µg/mL
MIC (Staphylococcus aureus [2]): 2 µg/mL
MIC (Staphylococcus aureus [3]): 2 µg/mL
MIC (Staphylococcus aureus [4]): 2 µg/mL
MIC (Staphylococcus aureus [5]): 2 µg/mL
Activity (Cell membrane [6]): Dose-dependent-effect
Activity (Staphylococcus aureus [7]): inactive
Activity (HEK-293T): Non-toxic
Activity (Cell membrane [8]): Active
inhibition (INH) (Staphylococcus aureus [9]): 64.1%
Activity (Staphylococcus aureus [10]): 100%
Activity (Cell membrane [11]): Active
MIC (Staphylococcus aureus [12]): 1 µg/mL
Activity (Staphylococcus aureus [13]): inactive
MIC (Staphylococcus aureus [14]): 1 µg/mL
MIC (Staphylococcus aureus [15]): 1 µg/mL (≈ 2.04 µM)
MIC (Staphylococcus aureus [16]): 1 µg/mL
MIC (Staphylococcus aureus [17]): 1 µg/mL
MIC (Staphylococcus aureus [18]): 2 µg/mL
MIC (Staphylococcus aureus [19]): 1 µg/mL
MIC (Staphylococcus aureus [20]): 2 µg/mL
MIC (Staphylococcus aureus [21]): 2 µg/mL
MIC (Staphylococcus aureus [22]): 2 µg/mL
MIC (Staphylococcus aureus [23]): 2 µg/mL (≈ 4.08 µM)
MIC (Staphylococcus aureus [24]): 2 µg/mL
MIC (Staphylococcus aureus [25]): 1 µg/mL
Activity (HepG2 [26]): >70%
Activity (A549): Active
HC50 [27]: > 128 µg/mL
MIC (Staphylococcus aureus [28]): 2 µg/mL
Activity (HepG2 [29]): Active
Activity (Staphylococcus aureus [30]): Active
MIC (Staphylococcus aureus [31]): 1 µg/mL
Activity (Staphylococcus aureus [32]): Active
MIC (Staphylococcus aureus [33]): 1 µg/mL
viability at up to 40 µM [34]: > 70%
MBC (Staphylococcus aureus [35]): 2 µg/mL (≈ 4.08 µM)
MIC (Staphylococcus aureus [36]): 2 µg/mL (≈ 4.08 µM)
MIC (Staphylococcus aureus [37]): 2 µg/mL
MIC (Staphylococcus aureus [38]): 1 µg/mL
Activity (Staphylococcus aureus [39]): inactive
Activity (Cell membrane [40]): Active
Ratio (Staphylococcus aureus [41]): 64
MBC (Staphylococcus aureus [42]): 4 µg/mL (≈ 8.15 µM)
Activity (Cell membrane [43]): Dose-dependent-effect
MIC (Staphylococcus aureus [44]): 2 µg/mL
